Our source for the TGI and GI50 values is PubChem BioAssay (NCI).

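A five-concentration, 48-hour dose response in 96-well plates underlies each endpoint, interpolated linearly between surrounding concentrations. GI50 = concentration required for 50% inhibition of growth. TGI denotes the concentration required for complete inhibition of growth.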 Some results are limits rather than exact numbers.

Some test systems named below: MDA-N; HCT-116 colon; MOLT-4 leukemia.
What all share (assay): growth of human tumour cells (NCI), 48 h

As for `CCCCCCCCCCCCNC(C)=O`, the TGI in the test on MDA-N was 31 µM; in the test with HCT-116 colon it was 37 µM.

For the compound `O=C(Nc1ccc(Cl)c(Cl)c1)c1cccc(NC2=C(Cl)C(=O)N(Cc3ccccc3)C2=O)c1`, the GI50 in the test on MOLT-4 leukemia is 6.36 µM; in the test with HCT-116 colon, 27.8 µM. The TGI in the test with MOLT-4 leukemia is 78.5 µM; with HCT-116 colon, above 100 µM.

As to `Cc1nc(-c2cccc(Nc3nc(-c4ccc(Cl)cc4)cs3)c2)cs1`, the figures for the GI50 with MOLT-4 leukemia and in the test on HCT-116 colon were 30.9 µM and 11.6 µM, respectively. For the same compound, the TGI in the test on MOLT-4 leukemia is above 50 µM; in the test with HCT-116 colon, 27.5 µM.

With `COc1cc(NS(C)(=O)=O)ccc1Nc1c2ccc([N+](=O)[O-])cc2nc2c(C)cccc12`, in the test with MOLT-4 leukemia, the GI50 is 0.0409 µM and the TGI was 4.37 µM. In addition, in the test with HCT-116 colon, the GI50 was 0.361 µM and the TGI was 10.7 µM.

Take `CCc1nc(N)nc(N)c1-c1ccc(NCCN)c([N+](=O)[O-])c1`: the TGI was above 82.8 µM in the test on MOLT-4 leukemia, above 100 µM with MDA-N and above 100 µM with HCT-116 colon.

In the case of `Clc1ncnc(Cl)c1Cl`, the TGI in the test on MOLT-4 leukemia, with MDA-N and with HCT-116 colon was above 100 µM throughout.

`COc1cccc(C2c3cc4c(cc3OC(C)(N3CCCC3)C2C)OCO4)c1OC` (stereo not drawn): the TGI with MOLT-4 leukemia was 27.4 µM; in the test on MDA-N it was 34.7 µM; with HCT-116 colon it was 17.7 µM.

As to `CCCCC[C@H](O)/C=C/[C@@H]1[C@@H](C/C=C\CCCC(=O)O)[C@@H](O)C[C@H]1O`, the GI50 in the test with MOLT-4 leukemia and in the test on HCT-116 colon was above 100 µM each time. Moreover, the TGI in the test with MOLT-4 leukemia and in the test with HCT-116 colon was above 100 µM in each case.

Consider `CC(=O)N[C@@H](Cc1ccc(OP(=O)(O)O)cc1)C(=O)N[C@H]1CCC(=O)N2CCC[C@@H](C(=O)NCc3ccc(Cl)cc3)N2C1=O`, for which, in the test with MOLT-4 leukemia, the GI50 is above 25 µM and the TGI was above 25 µM. In addition, in the test on HCT-116 colon, the GI50 was above 25 µM and the TGI is above 25 µM.

`COc1ccc(OC)c(/C=N/NC(=O)Cc2csc3nc(-c4ccc(Br)cc4)cn23)c1`: in the test with MOLT-4 leukemia, the GI50 is 3.47 µM and the TGI was determined as 8.08 µM. In the test with HCT-116 colon, the GI50 is 4.57 µM and the TGI turned out to be 15.9 µM.

As for `COc1ccc2oc(=O)cc(C(c3ccc[nH]3)c3ccc[nH]3)c2c1`, in the test on MOLT-4 leukemia, the GI50 is 0.111 µM and the TGI was found to be 12 µM. Further, in the test on HCT-116 colon, the GI50 is 0.328 µM and the TGI stood at 10.6 µM.

Turning to `CC1(C)N=C(N)N=C(N)N1c1cccc(CCCCc2cccc(S(=O)(=O)F)c2)c1`, in the test with MOLT-4 leukemia, the GI50 was 3.22 µM and the TGI stood at 80.7 µM. Besides, in the test on HCT-116 colon, the GI50 is 0.445 µM and the TGI is above 100 µM.

Turning to `COc1cc(C2c3[nH]c4ccccc4c3C[C@H]3COC(=O)N23)cc(OC)c1OC` (stereo partly drawn), the GI50 in the test on MOLT-4 leukemia was below 0.01 µM. This compound also returned a TGI in the test on MDA-N of 0.0492 µM.

For the compound `O=[N+]([O-])c1ccc(S(=O)(=O)Cc2ccccc2)c([N+](=O)[O-])c1`, the results for the TGI with MDA-N and with HCT-116 colon were 4.09 µM and 3.51 µM, respectively.

`COC(=O)CCC(=O)C(=O)OC`: the GI50 is 34800 µM in the test with MOLT-4 leukemia and 30600 µM in the test on HCT-116 colon.

Regarding `NC(=O)NNCc1ccccc1`, the TGI with MOLT-4 leukemia, in the test with MDA-N and with HCT-116 colon was above 100 µM in each case.

Take `O=C1c2ccccc2-c2c1c1ccccc1c(=O)n2CCCCNCCCn1c2c(c3ccccc3c1=O)C(=O)c1ccccc1-2`: in the test on MOLT-4 leukemia, the GI50 is 0.016 µM and the TGI came out at 0.452 µM. Also, in the test with HCT-116 colon, the GI50 was 0.00948 µM and the TGI turned out to be 0.688 µM.

With `COc1ccccc1NC(=O)c1sc2nc3c(cc2c1N)C(=O)CCC3`, the GI50 is above 100 µM in the test on MOLT-4 leukemia and 6.29 µM in the test with HCT-116 colon. Also, the TGI with MOLT-4 leukemia and in the test on HCT-116 colon was above 100 µM each time.

Regarding `O=C1C(Cl)=C(Nc2cccc(Cl)c2)C(=O)N1Cc1ccccc1`, the GI50 is 3.38 µM in the test with MOLT-4 leukemia and 3.56 µM with HCT-116 colon. Also, the TGI is above 100 µM with MOLT-4 leukemia and 13.3 µM with HCT-116 colon.

As for `C=C1C(=O)O[C@H]2[C@H]1CC/C(CNC(=O)Cc1c[nH]c3ccccc13)=C\CC[C@@]1(C)O[C@@H]21`, in the test on MOLT-4 leukemia, the GI50 was 1.83 µM and the TGI amounted to 5.75 µM. In the test with HCT-116 colon, the GI50 is 0.533 µM and the TGI came to 2.55 µM.

As for `FC(F)(F)c1nc(N2CCCC2)ncc1-c1nnnn1-c1ccc(Cl)cc1`, in the test with MOLT-4 leukemia, the GI50 is 5.07 µM and the TGI worked out at 25 µM. Also, in the test on HCT-116 colon, the GI50 is 23 µM and the TGI was determined as 54.6 µM.

Take `COc1ccc(C2CC(c3cc(OC)c(OC)c(OC)c3)=NO2)cc1OCCCCOc1cc2c(cc1OC)C(=O)N1CCC[C@H]1C=N2` (stereo partly drawn): the GI50 in the test with MOLT-4 leukemia is 1.85 µM; with HCT-116 colon, 1.7 µM. Moreover, the results for the TGI in the test with MOLT-4 leukemia and in the test with HCT-116 colon were 4.61 µM and 3.89 µM, respectively.

In the case of `O=C(O)C/C(=C\c1ccco1)C(=O)O`, the TGI in the test with MOLT-4 leukemia, in the test with MDA-N and in the test on HCT-116 colon was above 100 µM throughout.

With `COc1cc2c(cc1O)CC[C@@H]1[C@@H]2CC[C@]2(C)[C@@H](NCCN(C)C)CC[C@@H]12`, in the test on MOLT-4 leukemia, the GI50 is 0.187 µM and the TGI stood at 0.695 µM. In the test with HCT-116 colon, the GI50 is 0.139 µM and the TGI worked out at 0.522 µM.

On to `CCN(CC)CCOCC[C@H]1CC[C@H]2[C@@H]3[C@H](C)Cc4cc(OS(N)(=O)=O)ccc4[C@H]3CC[C@]12C`, for which, in the test with MOLT-4 leukemia, the GI50 was 1.53 µM and the TGI stood at 4.31 µM. Besides, in the test with HCT-116 colon, the GI50 was 0.696 µM and the TGI worked out at 2.08 µM.

In the case of `F`, the GI50 in the test on MOLT-4 leukemia was above 6870 µM; in the test with HCT-116 colon it was 2820 µM. Also, the TGI with MOLT-4 leukemia and in the test on HCT-116 colon was above 6870 µM each time.

`Cc1cc2nc(C(C)C(=O)c3ccc(Cl)cc3)c(=O)[nH]c2cc1C` (stereo not drawn): the TGI is above 100 µM with MOLT-4 leukemia, 40.4 µM with MDA-N and above 100 µM in the test with HCT-116 colon.

For the compound `Nc1c(C(=O)c2cccc(CCCN3CCOCC3)c2)cnn1-c1ccc(F)cc1`, in the test on MOLT-4 leukemia, the GI50 was above 25 µM and the TGI was above 25 µM. In the test with HCT-116 colon, the GI50 was above 25 µM and the TGI is above 25 µM.
